≈ marks a conversion by molar mass, not a printed value.
Assays:
[1] = test system: HEp-2; assay: Cytotoxicity was evaluated against Hep-2 cells in vitro; assay type: functional; conditions: Homo sapiens
[2] = Therapeutic index (CC50/MIC) was determined
[3] = test system: Nakaseomyces glabratus; assay: Minimum inhibitory concentration against Candida glabrata; assay type: functional
[4] = test system: Candida albicans; assay: Minimum inhibitory concentration against Candida albicans; assay type: functional
[5] = test system: Cryptococcus neoformans; assay: In vitro minimum inhibitory concentration against […]

Row | MIC [3] [µg/mL] | MIC [4] [µg/mL] | MIC [5] [µg/mL] | SMILES | CC50 [1] [µg/mL] | Therapeutic index [2]
1 | 8 (≈ 18 µM) | 2 (≈ 4.51 µM) |  | CC(C)C1=CC2CC3(C=O)[C@@H]4CC[C@@H](C)[C@H]4CC2(/C=N/OCC2CCCCO2)[C@]13C(=O)O (stereo not given in full) | 9 (≈ 20.3 µM) | 4.5
2 | 2 (≈ 4.68 µM) | 2 (≈ 4.68 µM) |  | CCCCC1CC(C23C[C@@H]4[C@H](C)CC[C@H]4C4(C=O)CC2C=C(C(C)C)[C@@]34C(=O)O)=NO1 (stereo not given in full) |  | 
3 | 4 (≈ 8.78 µM) | 1 (≈ 2.2 µM) |  | CC(C)C1=CC2CC3(C=O)[C@@H]4CC[C@@H](C)[C@H]4CC2(/C=N/OCCCC(F)(F)F)[C@]13C(=O)O | 1.9 (≈ 4.17 µM) | 1.9
4 | > 128 | > 128 |  | CC(C)C1=CC2CC3(C=O)[C@@H]4CC[C@@H](C)[C@H]4CC2(C2=NOC(CO)C2)[C@]13C(=O)O (stereo not given in full) |  | 
5 | 128 (≈ 282 µM) | > 128 |  | Cc1noc(C)c1CO/N=C/C12C[C@@H]3[C@H](C)CC[C@H]3C3(C=O)CC1C=C(C(C)C)[C@@]23C(=O)O |  | 
6 | 8 (≈ 19.3 µM) | > 128 |  | CC(C)C1=CC2CC3(C=O)[C@@H]4CC[C@@H](C)[C@H]4CC2(C2=NOC4OCCC24)[C@]13C(=O)O (stereo not given in full) |  | 
7 | 1 (≈ 2.26 µM) | 0.25 (≈ 0.566 µM) |  | CC(C)C1=CC2CC3(C=O)[C@@H]4CC[C@@H](C)[C@H]4CC2(/C=N/OCC2CCCCC2)[C@]13C(=O)O | 0.6 (≈ 1.36 µM) | 2.4
8 | 4 (≈ 9.02 µM) | 8 (≈ 18 µM) |  | CCOC(=O)C1CC(C23C[C@@H]4[C@H](C)CC[C@H]4C4(C=O)CC2C=C(C(C)C)[C@@]34C(=O)O)=NO1 (stereo not given in full) |  | 
9 | 16 (≈ 35.6 µM) | 16 (≈ 35.6 µM) |  | Cc1ccccc1CO/N=C/C12C[C@@H]3[C@H](C)CC[C@H]3C3(C=O)CC1C=C(C(C)C)[C@@]23C(=O)O |  | 
10 | 128 (≈ 312 µM) | 128 (≈ 312 µM) |  | CC(C)C1=CC2CC3(C=O)[C@@H]4CC[C@@H](C)[C@H]4CC2(C2=NOC(CC#N)C2)[C@]13C(=O)O (stereo not given in full) |  | 
11 | 128 (≈ 286 µM) | 8 (≈ 17.9 µM) |  | COCCOCCO/N=C/C12C[C@@H]3[C@H](C)CC[C@H]3C3(C=O)CC1C=C(C(C)C)[C@@]23C(=O)O | 46 (≈ 103 µM) | 5.7
12 | 1 (≈ 2.42 µM) | 1 (≈ 2.42 µM) |  | CC(C)=CCO/N=C/C12C[C@@H]3[C@H](C)CC[C@H]3C3(C=O)CC1C=C(C(C)C)[C@@]23C(=O)O | 4.5 (≈ 10.9 µM) | 4.5
13 | 1 (≈ 2.19 µM) | 4 (≈ 8.78 µM) |  | CCC(C)(C)CC1CC(C23C[C@@H]4[C@H](C)CC[C@H]4C4(C=O)CC2C=C(C(C)C)[C@@]34C(=O)O)=NO1 (stereo not given in full) |  | 
14 | 1 (≈ 2.33 µM) | 0.5 (≈ 1.16 µM) |  | CC(C)C1=CC2CC3(C=O)[C@@H]4CC[C@@H](C)[C@H]4CC2(/C=N/OC2CCCCO2)[C@]13C(=O)O (stereo not given in full) | 33 (≈ 76.8 µM) | 66
15 | > 128 | > 128 |  | CC(C)C1=CC2CC3(C=O)[C@@H]4CC[C@@H](C)[C@H]4CC2(C2=NOC4C2CCN4Cc2ccccc2)[C@]13C(=O)O (stereo not given in full) |  | 
16 | 0.5 (≈ 1.25 µM) | 0.5 (≈ 1.25 µM) |  | CC(C)CO/N=C/C12C[C@@H]3[C@H](C)CC[C@H]3C3(C=O)CC1C=C(C(C)C)[C@@]23C(=O)O | 35 (≈ 87.2 µM) | 70
17 | 16 (≈ 38.3 µM) | 16 (≈ 38.3 µM) |  | CCOCCO/N=C/C12C[C@@H]3[C@H](C)CC[C@H]3C3(C=O)CC1C=C(C(C)C)[C@@]23C(=O)O | 22 (≈ 52.7 µM) | 1.4
18 | 4 (≈ 9.06 µM) | 1 (≈ 2.26 µM) |  | CC(C)CCC1CC(C23C[C@@H]4[C@H](C)CC[C@H]4C4(C=O)CC2C=C(C(C)C)[C@@]34C(=O)O)=NO1 (stereo not given in full) |  | 
19 | > 128 | 16 (≈ 32.5 µM) |  | COC1C(O)[C@H](O)[C@H](OC[C@@]23C[C@@H]4[C@H](C)CC[C@H]4[C@@]4(C=O)CC2C=C(C(C)C)[C@@]34C(=O)O)O[C@@H]1C (single isomer, unassigned) [SORDARIN] | 167 (≈ 339 µM) | 10
20 | 8 (≈ 18 µM) | 1 (≈ 2.25 µM) |  | CCCCOC1CC(C23C[C@@H]4[C@H](C)CC[C@H]4C4(C=O)CC2C=C(C(C)C)[C@@]34C(=O)O)=NO1 (stereo not given in full) |  | 
21 | > 128 | 16 (≈ 34 µM) |  | CC(C)C1=CC2CC3(C=O)[C@@H]4CC[C@@H](C)[C@H]4CC2(C2=NOC(CN4CCOCC4)C2)[C@]13C(=O)O (stereo not given in full) |  | 
22 | 1 (≈ 2.26 µM) | 2 (≈ 4.53 µM) |  | CC(C)C1=CC2CC3(C=O)[C@@H]4CC[C@@H](C)[C@H]4CC2(C2=NOC(CC(C)(C)C)C2)[C@]13C(=O)O (stereo not given in full) |  | 
23 | 8 (≈ 17 µM) | 2 (≈ 4.26 µM) |  | CC(C)C1=CC2CC3(C=O)[C@@H]4CC[C@@H](C)[C@H]4CC2(/C=N/OCc2ccccc2Cl)[C@]13C(=O)O | 1.4 (≈ 2.98 µM) | 0.7
24 | 2 (≈ 4.41 µM) | 2 (≈ 4.41 µM) |  | CC(C)C1=CC2CC3(C=O)[C@@H]4CC[C@@H](C)[C@H]4CC2(C2=NOC(C4CCCCC4)C2)[C@]13C(=O)O (stereo not given in full) |  | 
25 | 0.06 (≈ 0.144 µM) | 0.06 (≈ 0.144 µM) | 64 (≈ 154 µM) | CCCCCO/N=C/C12C[C@@H]3[C@H](C)CC[C@H]3C3(C=O)CC1C=C(C(C)C)[C@@]23C(=O)O | 5.5 (≈ 13.2 µM) | 92
26 | 32 (≈ 80.5 µM) | 8 (≈ 20.1 µM) |  | CC#CCO/N=C/C12C[C@@H]3[C@H](C)CC[C@H]3C3(C=O)CC1C=C(C(C)C)[C@@]23C(=O)O | 16 (≈ 40.3 µM) | 2
27 | 2 (≈ 4.47 µM) | 16 (≈ 35.7 µM) |  | CC(C)C1=CC2CC3(C=O)[C@@H]4CC[C@@H](C)[C@H]4CC2(C2=NOC(c4ccccc4)C2)[C@]13C(=O)O (stereo not given in full) |  | 
28 | 1 (≈ 2.41 µM) | 0.5 (≈ 1.2 µM) |  | CC(C)CCO/N=C/C12C[C@@H]3[C@H](C)CC[C@H]3C3(C=O)CC1C=C(C(C)C)[C@@]23C(=O)O | 4 (≈ 9.63 µM) | 8
29 | 1 (≈ 2.35 µM) | > 128 |  | CC(C)C1=CC2CC3(C=O)[C@@H]4CC[C@@H](C)[C@H]4CC2(C2=NOC4CCCCC24)[C@]13C(=O)O (stereo not given in full) |  | 
30 | 0.5 (≈ 1.2 µM) | 0.25 (≈ 0.602 µM) |  | CC[C@@H](C)CO/N=C/C12C[C@@H]3[C@H](C)CC[C@H]3C3(C=O)CC1C=C(C(C)C)[C@@]23C(=O)O | 2.7 (≈ 6.5 µM) | 11

Row | SMILES | MIC [3] [µg/mL] | MIC [4] [µg/mL] | MIC [5] [µg/mL] | CC50 [1] [µg/mL] | Therapeutic index [2]
31 | CC(C)C1=CC2CC3(C=O)[C@@H]4CC[C@@H](C)[C@H]4CC2(c2cc(-c4ccccc4)on2)[C@]13C(=O)O | 0.25 (≈ 0.561 µM) | 8 (≈ 18 µM) |  |  | 
32 | CC(C)C1=CC2CC3(C=O)[C@@H]4CC[C@@H](C)[C@H]4CC2(c2cc(CO)on2)[C@]13C(=O)O | > 128 | > 128 |  |  | 
33 | CC(C)C1=CC2CC3(C=O)[C@@H]4CC[C@@H](C)[C@H]4CC2(CO)[C@]13C(=O)O | > 128 | > 128 |  |  | 
